Experimental data published in ChEMBL document CHEMBL1201862, “PubChem BioAssay data set” (2004).
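Method: 48-hour compound exposure of cells in 96-well plates, five concentrations, linear interpolation of endpoints. At the GI50, growth is halved.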 Calls of active or inactive are those of the source. Cut-off read from the data, not from the text of the source: active = GI50 up to about 1.1 µM and inactive = higher.

Tests used:
Experiment in all cases: NCI anticancer screen, dose series, 48 h
[1] = system: IGROV-1
[2] = system: SF-539
[3] = system: UACC-257
[4] = system: K562
[5] = system: SW-620
[6] = system: LOX IMVI
[7] = system: SK-MEL-28
[8] = system: SNB-19
[9] = system: Malme-3M
[10] = system: OVCAR-8
[11] = system: PC-3
[12] = system: MOLT-4
[13] = system: NCI-H226
[14] = system: SR
[15] = system: RPMI-8226
[16] = system: SK-MEL-2
[17] = system: NCI-H460
[18] = system: MDA-N
[19] = system: KM12
[20] = system: Hs-578T

| Structure (SMILES) | GI50 [1] | GI50 [2] | GI50 [3] | GI50 [4] | GI50 [5] | GI50 [6] | GI50 [7] | GI50 [8] | GI50 [9] | GI50 [10] | GI50 [11] | GI50 [12] | GI50 [13] | GI50 [14] | GI50 [15] | GI50 [16] | GI50 [17] | GI50 [18] | GI50 [19] | GI50 [20] |
| --- | --- | --- | --- | --- | --- | --- | --- | --- | --- | --- | --- | --- | --- | --- | --- | --- | --- | --- | --- | --- |
| CCN(CCCl)c1cc(CN(C)C)cc(NC(=O)c2ccc(C(=O)Nc3cccc(CN(C)C)c3)cc2)c1 | 0.274 µM (active) | 0.457 µM (active) | 1.83 µM (inactive) | 0.321 µM (active) | 0.225 µM (active) | 0.201 µM (active) | 2.07 µM (inactive) | 0.286 µM (active) | 1.31 µM (inactive) | 0.889 µM (active) | 0.305 µM (active) | 0.261 µM (active) | 3.21 µM (inactive) | 0.275 µM (active) | 2.16 µM (inactive) | 0.467 µM (active) | 0.716 µM (active) | 0.29 µM (active) | 1.28 µM (inactive) | 0.23 µM (active) |
| COC(=O)/C=C\C(C#N)(C#N)/N=C/c1cc(Br)cs1 | 3.44 µM (inactive) | 4.8 µM (inactive) | 2.67 µM (inactive) | 0.562 µM (active) | 1.15 µM (inactive) | 2.06 µM (inactive) | 5.32 µM (inactive) | 18.5 µM (inactive) | 1.71 µM (inactive) | 3.84 µM (inactive) | 5.09 µM (inactive) | 1.89 µM (inactive) | 19.8 µM (inactive) | 2.32 µM (inactive) | 3.24 µM (inactive) | 10.6 µM (inactive) | 19.6 µM (inactive) | 2.67 µM (inactive) | 21 µM (inactive) | 22.8 µM (inactive) |
